Assay results published in article PMC11863921 (BMC Biology, 2025).
Entries after “also recorded” stand apart in the source; their conditions may differ.

Tests used:
[1] = test system: ovarian fragments of A. cf. solaris; assay: In vitro spawning assay with ovarian fragments of A. cf. solaris; details: 1 h; for gonadotropic activity (shedding of mature eggs / spawning): 2 × 10^−10–2 × 10^−6 M, four separate assays
Description: Adult A. cf. solaris were collected from the Great Barrier Reef by Pacific Marine Group divers associated with the Great Barrier Reef Marine Park Authority (GBRMPA) before being transported to the University of the Sunshine Coast aquarium facility. Animals were briefly maintained in a re-circulating protein-skimmed and aerated saltwater system of approximately 1500 L. The animals used were approximately 25–55 cm in diameter and kept unfed for the duration of the experiment. The gender and ovarian maturation stage was determined by using a minor gonad tissue biopsy technique and, thereafter, animals were individually segregated in a flowthrough aerated tank filled with approximately 55 L of filtered seawater for a minimum of 24 h to recover and acclimatize.
AsoRGP1 and AsoRGP2 were synthesized as described previously. In addition, a modified form of AsoRGP2 was synthesized in which the N-terminal residue of the A-chain (glutamine, Q) was substituted with pyroglutamate (pQ), recognizing the possibility of this potential post-translational modification. […] In vitro spawning assays using ovarian fragments were performed following procedures described previously. In brief, the ovaries were excised and cut using scissors into small fragments containing only a few lobes. The ovarian fragments were then incubated in artificial seawater containing RGP-type peptides at a range of concentrations (2 × 10^−10–2 × 10^−6 M) for 1 h. As a control experiment, ovarian fragments were incubated in artificial seawater alone. The samples were examined to determine whether or not in vitro spawning had occurred and were scored as follows: (+ + +) spawning occurred and most oocytes had matured; (+ +) about 50% of oocytes had matured, ( +) a few oocytes had matured and ( −): no spawning occurred. […] Means ± standard error of mean (SEM) were determined from four separate assays using ovaries from four different animals.

AsolLGR4(long) = assay: CRE reporter gene assay in HEK-293T cells transfected with AsolLGR4(long); type: cell-based, A. cf. solaris; details: HEK-293T cells with AsolLGR4(long), any concentration tested
Description: The coding sequences for AsolRXFP/LGR3, AsolLGR4(short), and AsolLGR4(long) lacking a native N-terminal signal peptide were optimized for mammalian codon usage, but with the addition of a 5′ nucleotide sequence encoding an N-terminal bovine prolactin precursor signal peptide followed by a FLAG tag. The coding sequences for each construct are presented in Additional file 16: Dataset S9. Following the addition of a Kozak sequence (GCCACC) before the start codon of each coding sequence, the receptor cDNAs were synthesized in pUC57 vectors (GenScript, Hong Kong) with BamHI and XhoI restriction sites and Gateway‐compatible attB5 and attB2 sites at both ends to also allow recloning into pcDNA3.1/Zeo ( +) or Gateway (Invitrogen) vectors. pUC57 vectors were first digested with BamHI and XhoI restriction enzymes together with pcDNA3.1/Zeo ( +) followed by agarose gel purification of the digested DNA. Receptor constructs were ligated into the cut pcDNA3.1/Zeo ( +) vector to produce pcDNA-AsolRXFP/LGR3, pcDNA − AsolLGR4(short), and pcDNA − AsolLGR4(long). The sequences were confirmed by using Sanger sequencing on both strands. The AsolRXFP/LGR3 sequence was cloned into a lentiviral vector under the control of the constitutive human Ef1α promoter using Gateway technology (Invitrogen), according to the manufacturer’s instructions. […]

| Substance | gonadotropic activity (shedding of mature eggs / spawning) [1] | cAMP activity / CRE reporter gene activation (AsolLGR4(long)) | relative potency in inducing shedding of mature eggs / spawning ([1]; semi-quantitative, compared with RGP1 or unmodified RGP2) |
| --- | --- | --- | --- |
| Acanthaster cf. solaris Relaxin-like gonad-stimulating peptide 1 [AsolRGP1] | exhibited gonadotropic activity; also recorded: dose-dependent induction of spawning | no significant increase in cAMP levels; also recorded: Neither AsolRGP1 nor AsolRGP2 induced CRE reporter gene activation |  |
| Acanthaster cf. solaris Relaxin-like gonad-stimulating peptide 2 [AsolRGP2] | exhibited gonadotropic activity; also recorded: dose-dependent induction of spawning | no significant increase in cAMP levels; also recorded: Neither AsolRGP1 nor AsolRGP2 induced CRE reporter gene activation | slightly less potent than RGP1 |
